Laboratory results: US20240277712A1, “TREATMENT AND PREVENTION OF DEVELOPMENTAL DISORDERS AND MENTAL DISEASES” (KYUSHU UNIVERSITY, NATIONAL UNIVERSITY CORPORATION, priority 2020, published 2024)
Entries after “also recorded” stand apart in the source; their conditions may differ. Counter-ions that a name gives are not always drawn.

Experiments:
[1] = tested on: MECP2-deficient neurons; assay: Morphological analysis of iPS cell-derived neurons (Neurolucida tracing, Scholl analysis); assay type: cell-based, human; conditions: 3TC 10 μM in combination with d4T 1 μM, NVP 400 nM
Description: Specifically, differentiated nervous system cells derived from normal human iPS cells and iPS cells obtained from patients suffered from Rett syndrome (hereinafter referred to as MECP2-deficient or MECP2-KO because the MECP2 gene was inactivated) were cultured and differentiated into cortical neurons. […] For neuronal maturation, the cells were kept in the same media but the growth factors were withdrawn.
The differentiated nervous system cells were maintained for 8 weeks after FGF withdraw.
(§2) Next, 3TC and d4T were added to the obtained differentiated neural cell culture. The reverse-transcriptase inhibitors for cultured cells were prepared for as follows: Lamivudine (3TC, Sigma-Aldrich) was prepared in dimethyl sulfoxide (DMSO, Sigma Aldrich) and the preparation was added to media so that the final concentration of 3TC was adjusted into 10 μM. […]
Cultured NPCs were transduced with a lentivirus backbone containing Synapsin 1 (SYN) promoter upstream of an EGFP reporter (Nageshappa et al., Mol Psychiatry 21, 178-188 (2016)). […] 11 (MBF Bioscience, Williston, VT) was used to quantify the morphology of the neurons and then to obtain the sum of length of all neurites and dendrites per traced neuron. […] Neuronal complexity was determined by recording the number of intersections within each ring.

[2] = tested on: MECP2-deficient neurons; assay: Quantification of co-localized synaptic puncta (SYN1/PSD-95) on iPS cell-derived neurons; assay type: cell-based, human; conditions: vs neurons treated without reverse transcriptase inhibitors, NVP 400 nM
Description: Specifically, differentiated nervous system cells derived from normal human iPS cells and iPS cells obtained from patients suffered from Rett syndrome (hereinafter referred to as MECP2-deficient or MECP2-KO because the MECP2 gene was inactivated) were cultured and differentiated into cortical neurons. For differentiation into neurospheres (neural stem cell clusters), NPCs were dissociated from the plate using StemPro Accutase (Life Technologies), and 3-5 million cells were then cultured in suspension on 6-well plates in a shaker incubator at 95 r.p.m. at 37° C. for 48 hours in neural culture (NG) media (DMEM/F12, 1% Glutamax (Life Technologies), 1% N2 Neuroplex (Gemini Bio-products), 2% Gem21 NeuroPlex (Gemini Bio-products), 1% penicillin-streptomycin) supplemented with bFGF (basic Fibroblast Growth Factor, R&D Systems). […]
Quantification of synaptic spots was performed as follows.
Five- to six-week-old neurons were fixed and stained for the following markers: SYN1, postsynaptic density protein 95 (PSD-95), and dendritic marker (MAP2). A fluorescence microscope (Z1 Axio Observer Apotome Zeiss) was used to image the slides by compiling Z stack images taken from changing focus distances. Co-localized SYN1 (presynaptic) and PSD-95 (postsynaptic) were quantified using the compiled Z stack image. […]

[3] = tested on: MECP2-deficient spheroids; assay: Multi-electrode array (MEA) neural network activity of spheroids; assay type: cell-based, human; conditions: MEA after 4 weeks, chronic treatment
Description: Next, 3TC and d4T were added to the obtained differentiated neural cell culture. The reverse-transcriptase inhibitors for cultured cells were prepared for as follows: Lamivudine (3TC, Sigma-Aldrich) was prepared in dimethyl sulfoxide (DMSO, Sigma Aldrich) and the preparation was added to media so that the final concentration of 3TC was adjusted into 10 μM. Stavudine (d4T, Sigma-Aldrich) was suspended in water and a final concentration of 1 μM d4T was used in combination with 3TC. […] Control cells (CTRL) contained 10 pjM DMSO as a vehicle control.
The NPCs used to generate spheroids were chronically treated under their respective conditions and plated on multi-electrode array (MEA) planes to measure neural network activity. MEA plates were recorded weekly and analysis of spontaneous neural activity was performed after 4 weeks.
Multi-electrode array (MEA) was performed as follows.
Twelve-well MEA plates (Axion Biosystems) were coated with 100 μg/mL poly-L-ornithine (Sigma-Aldrich) and 5 μg/mL laminin (Life Technologies). Neurospheres generated from NPCs were placed in the center of the MEA wells and the electrodes were fully covered. Neurospheres were plated in NG media supplemented with 1% FBS. […] Media was changed twice a week and recordings were measured one day after the media was changed. […]

[4] = tested on: MECP2-deficient organoids; assay: Measurement of cortical organoid diameter; assay type: cell-based, human; conditions: after 56 days of differentiation
Description: The cultured iPS cells were dissociated from the plate using a 1:1 Dulbecco's phosphate-buffered saline (DPBS, Fisher Scientific) and StemPro Accutase solution, transferred to 6-well plates, and kept in suspension. Neural induction media consisted of DMEM/F12, 1% Glutamax, 1% N2 Neuroplex, 1% non-essential amino acids (Gibco), 1% penicillin-streptomycin, 1 μM Dorsomorphin (R&D Systems), and 10 μM SB431542 (SB, Stemgent) Neural proliferation media consisted of Neurobasal media (Life Technologies), 2% Gem21 Neuroplex, 1% non-essential amino acids, 1% Glutamax, 20 ng/mL epidermal growth factor (EGF, Peprotech), and 20 ng/mL bFGF. For neuronal maturation, the cells were kept in the same media but the growth factors were withdrawn. Organoid results are combined from four separate batches of differentiation.
as §2
Cortical organoids were imaged on an Evos FL Imagine System (ThermoFisher) at 4× magnification. The images were uploaded to Image J and the diameter of each organoid was determined by the program's length measurement function.

[5] = target: L1 reverse transcriptase (Homo sapiens, UniProt O00370); conditions: Dai et al., BMC Biochemistry 2011, 12:18; cited from earlier work
Chain of L1 reverse transcriptase (O00370 whole entry, looked up): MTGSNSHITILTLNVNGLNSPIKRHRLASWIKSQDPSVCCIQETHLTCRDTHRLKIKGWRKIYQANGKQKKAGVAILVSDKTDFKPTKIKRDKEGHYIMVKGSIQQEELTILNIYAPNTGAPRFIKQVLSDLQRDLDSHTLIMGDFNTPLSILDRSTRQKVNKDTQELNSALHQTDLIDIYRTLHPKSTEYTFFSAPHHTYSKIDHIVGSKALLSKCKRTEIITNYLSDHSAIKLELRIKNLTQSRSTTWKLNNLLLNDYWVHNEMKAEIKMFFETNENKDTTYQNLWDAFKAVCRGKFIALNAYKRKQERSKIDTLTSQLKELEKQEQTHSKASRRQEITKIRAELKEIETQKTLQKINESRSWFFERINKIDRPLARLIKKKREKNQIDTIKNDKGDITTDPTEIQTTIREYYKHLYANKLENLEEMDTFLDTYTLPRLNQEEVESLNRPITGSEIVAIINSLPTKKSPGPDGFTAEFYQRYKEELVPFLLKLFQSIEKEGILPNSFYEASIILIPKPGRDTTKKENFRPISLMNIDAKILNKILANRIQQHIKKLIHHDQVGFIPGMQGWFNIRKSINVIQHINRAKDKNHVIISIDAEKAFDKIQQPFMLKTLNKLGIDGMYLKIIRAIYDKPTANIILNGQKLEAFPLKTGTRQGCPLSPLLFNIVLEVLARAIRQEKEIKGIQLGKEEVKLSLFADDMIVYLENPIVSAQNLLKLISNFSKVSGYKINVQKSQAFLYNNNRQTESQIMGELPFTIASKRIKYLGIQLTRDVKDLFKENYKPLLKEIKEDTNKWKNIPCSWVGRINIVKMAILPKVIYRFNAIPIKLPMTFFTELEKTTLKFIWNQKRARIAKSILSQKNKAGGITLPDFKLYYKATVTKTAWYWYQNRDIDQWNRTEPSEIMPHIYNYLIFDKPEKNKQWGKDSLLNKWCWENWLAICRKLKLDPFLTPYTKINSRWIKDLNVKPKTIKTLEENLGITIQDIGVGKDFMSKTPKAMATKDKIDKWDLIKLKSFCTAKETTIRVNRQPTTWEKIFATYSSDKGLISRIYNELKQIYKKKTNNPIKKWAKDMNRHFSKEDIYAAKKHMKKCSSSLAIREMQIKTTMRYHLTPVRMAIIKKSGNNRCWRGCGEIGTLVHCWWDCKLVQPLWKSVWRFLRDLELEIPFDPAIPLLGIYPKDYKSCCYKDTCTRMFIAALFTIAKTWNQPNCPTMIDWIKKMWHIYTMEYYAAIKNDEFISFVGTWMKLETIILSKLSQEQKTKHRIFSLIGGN

[6] = target: HIV reverse transcriptase (Human immunodeficiency virus type 1 group M subtype B, UniProt P04585); conditions: cited from earlier work
[7] = tested on: L1; assay: L1-EGFP vector assay in HEK293; assay type: cell-based, human; conditions: HEK293 with L1-EGFP vector, 20 μM, four days
Description: The reverse transcriptase inhibitors 3TC, d4T and Tenofovir disoproxil Fumarate (TDF), QA-2704, Combi-Blocks) were added to cell lines derived from human fetal kidney cells (HEK293) to a final concentration of 20 μM, and the cells were introduced with a vector (L1-EGFP, Macia et al. Genome Res 27, 335-348 (2017)) in which EGFP protein was expressed in only cells with activated L1. Four days after incubating, immunostaining was performed using antibodies against GFP and Hoechest, which stains nuclei, and images were taken using a fluorescence microscope (Leica AF600) with a 10× objective.

[8] = tested on: MeCP2-KO mice; assay: Neurological symptom scoring in MeCP2-KO mice; assay type: in vivo; conditions: 2 mg/ml in drinking water starting at week 4, observed up to 10 weeks, vs vehicle
Description: Treatment with reverse transcription inhibitors was performed as follows.
(§1) MeCP2-KO mice (C57BL/6 background) were obtained from Mutant Mouse Resource & Research Centers (MMRRC) (Chen, RZ, Akbarian S, Tudor M and Jaenisch R. Nat Genet 27, 327-331 (2001)). All aspects of animal care and treatment were carried out according to the guidelines of the Experimental Animal Care Committee of Kyushu University.
Mice were maintained in a 12-hour light/dark cycle with free access to food and water. MeCP2-KO mice were divided into three groups of animals, each of which was administered with 3TC (QA-4615, Combi-blocks), d4T (d3580, Tokyo Chemical Industry Co., Ltd.) and vehicle. […]
Neurological symptoms of the mice were scored as described in Guy J, Gan J, Selfridge J, Cobb S and Bird A. Science 315, 1143-1147 (2007). In brief, the mice bred as described above were scored blind to genotype and treatment status, focusing on the six symptoms of mobility, gait, hindlimb clasping, tremor, breathing, and general condition. Each of the six symptoms was scored from 0 to 2:0 corresponds to symptom's being absent or the same as in the wild-type, 1 corresponds to symptom's being present, and 2 corresponds to severe symptom.
Six neurological symptoms scored in each of the three groups of the mice (vehicle, 15 mice; 3TC, 10 mice; d4T, 10 mice) were summed, and observed and recorded for up to 10 weeks.

[9] = tested on: MeCP2-KO mice; assay: Survival of MeCP2-KO mice; assay type: in vivo; conditions: 2 mg/ml in drinking water starting at week 4, vs vehicle
Description: as §1
Mice were maintained in a 12-hour light/dark cycle with free access to food and water. MeCP2-KO mice were divided into three groups of animals, each of which was administered with 3TC (QA-4615, Combi-blocks), d4T (d3580, Tokyo Chemical Industry Co., Ltd.) and vehicle. The mice were orally administered with 3TC (2 mg/ml), d4T (2 mg/ml) and vehicle in drinking water, respectively, starting at week 4. As a control, the vehicle-treated MeCP2-KO mice were used. All mice were observed daily.
Next, the survival rate of the mice in each group (vehicle, 20 mice; 3TC, 13 mice; d4T, 13 mice) was examined.

Cc1ccnc2c1NC(=O)c1cccnc1N2C1CC1 [NVP, Nevirapine]
cell body area [1]: this rescue was not seen
number of branch points [1]: this rescue was not seen
co-localized puncta (synapse formation) [2]: not seen
weighted mean firing rate [3]: significantly decreased
cortical organoid diameter [4]: not seen
inhibitory activity for L1 reverse transcriptase [5]: does not have any inhibitory activity; also recorded: not to have any L1 reverse transcriptase inhibitory activity
inhibitory activity for HIV reverse transcriptase [6]: has an HIV reverse transcriptase inhibitory activity

CC(C)OC(=O)OCOP(=O)(CO[C@H](C)Cn1cnc2c(N)ncnc21)OCOC(=O)OC(C)C [TDF, Tenofovir disoproxil Fumarate]
percentage of EGFP-positive cells [7]: decrease

Cc1cn([C@H]2C=C[C@@H](CO)O2)c(=O)[nH]c1=O [d4T, stavudine]
Rett symptoms (summed score of six neurological symptoms) [8]: Significant reductions
survival rate [9]: Significant life extensions
percentage of EGFP-positive cells [7]: decrease

CC(C)Nc1cccnc1N1CCN(C(=O)c2cc3cc(NS(C)(=O)=O)ccc3[nH]2)CC1 [delavirdine]
inhibitory activity for L1 reverse transcriptase [5]: have an inhibitory activity

O=C1Nc2ccc(Cl)cc2[C@@](C#CC2CC2)(C(F)(F)F)O1 [efavirenz, Efavirenz]
inhibitory activity for L1 reverse transcriptase [5]: have an inhibitory activity
